From US9486434B2, “Method for delivery and use of isothiocyanates for prophylaxis and/or therapy of bladder cancer” (Health Research Inc., priority 2010, dated 2016)

What was measured:
UM-UC-3 cells = assay: Cell cycle arrest by flow cytometry, UM-UC-3 cells; assay type: cell-based, human; settings: 24 h
Method: FIG. 3. The effect of AITC on cell survival and proliferation. AITC was evaluated at the indicated concentrations in human bladder cancer UM-UC-3 cells, rat bladder cancer AY-27 cells, and normal human bladder epithelial cells (HUC). A. Cell growth inhibition, measured by MTT assay, 72-h AITC treatment. IC50 was calculated from nonlinear regression curve fit. B. Cell cycle arrest (□, subG1; ? , G1; ? , 5; ▪, G2/M), measured by flow cytometry, 24 h AITC treatment. C. Apoptosis induction, measured by an ELISA assay, 24 h AITC treatment. Mean±SE, n=3-6), *P<0.05.
FIG. 4. Effect of AITC on mitosis, tubulin expression and apoptosis in human bladder cancer UM-UC-3 cells. Cells were treated with vehicle or AITC for 24 h (each numerical value is mean±SD). A. Flow cytometry analysis for cell cycle arrest. B. Wright-Giemsa staining for counting mitotic figures. Arrows point to cells in mitosis or mitotic catastrophe. C. Immunofluorescent staining of microtubules (green color) and DNA staining with DAPI (blue color). D. Western blotting of tubulins (GAPDH as a loading control). E. Loss of mitochondrial transmembrane potential (Δψm) measured by flow cytometry. […] G. Apoptotic cells (TUNEL cells) measured by flow cytometry. […]
FIG. 10. […] NAC-AITC was evaluated in both UM-UC-3 cells and AY-27 cells. […] (B) Cell growth and proliferation, measured by 3-([…])-2,5-diphenyltetrazolium bromide assay, 72 h treatment with AITC or NAC-AITC at indicated concentrations. IC50 was calculated from the non-linear regression curve fit. (C) Apoptosis, measured by an enzyme-linked immunosorbent assay, 24 h NAC-AITC treatment at 15 µM. (D) Cell cycle (open bars, G1; shaded bars, S; closed bars, G2/M), measured by flow cytometry, 24 h NAC-AITC treatment at 15 μM. *P<, 0.005, compared with control.
The effect of NAC-AITC on cell cycle progression was measured by flow cytometry as described previously. […] Induction of apoptosis by NAC-AITC was measured using the Cell Death Detection ELISA^plus kit (Roche Diagnostics, Indianapolis, Ind.), following the manufacturer's instruction. […]

[1] = test system: caspase-3, α-tubulin, β-tubulin, VEGF in AY-27 cells; assay: Western blotting in cultured AY-27 cells; assay type: cell-based, rat; settings: NAC-AITC 7.5 and 15 μM, 24 h
Method: FIG. 8. Inhibition of bladder cancer development by MSP-1. Female F344 rats were inoculated with AY-27 cells intravesically via a urethra catheter to initiate development of orthotopic bladder cancer. Oral administration of MSP-1 of vehicle (water) once daily was started 1 day after cancer cell inoculation and ended 3 weeks later. The number of rats per group varied from 11-29. A. Initial (□) and final (▪) body weights. B. Tumor weight was calculated by subtracting the average normal bladder weight from tumor-bearing bladder weight. *P<0.05. Each value in A and B is mean±SEM. C. Percentage of bladder where the tumor invaded the muscle tissue. D. The effects of MSP-1 on selected anticancer targets in UM-UC-3 cells (in vitro), AY-27 cells (in vitro) and AY-27 tumors (in vivo). The cells were treated with MSP-1 at the sinigrin concentrations of 13 and 26 microM for 24 h. The bladder tumors were removed from rats treated with MSP-1 at the sinigrin doses of 9 or 90 micromols/kg once daily for 3 weeks, started 1 day after cancer cell inoculation. Cell lysates and tumor homogenates were analyzed by Western blotting, using GAPDH as a loading control.
FIG. 13. Molecular targets of NAC-AITC in bladder cancer. AY-27 cells in culture were treated with NAC-AITC for 24 h. The results are representative of at least two experiments. The bladder tumors were removed from rats, which were treated with NAC-AITC orally at 10 μmol/kg once daily for 3 weeks, starting 1 day after intravesicular inoculation of AY-27 cells. The results are representative of three to five tumors assayed in each group. Cell lysates and tumor tissue homogenates were analyzed by western blot analysis, using GAPDH as a loading control.
Western blot analysis. Cells after harvest were washed with ice-cold phosphate-buffered saline, suspended in radioimmunoprecipitation assay lysis buffer supplemented with a protease inhibitor cocktail (Sigma-Aldrich) and further lysed by sonication. […]

| SMILES | cells in G2/M phase (UM-UC-3 cells; AITC 7.5-15 microM, control 9.9-11.5%) | increase in subG1 population (UM-UC-3 cells; AITC) | cells in G2/M phase (UM-UC-3 cells; NAC-AITC 15 µM, control 11-12%) [%] | VEGF level [1] | caspase-3 cleavage/activation [1] | α-tubulin and β-tubulin levels [1] |
| --- | --- | --- | --- | --- | --- | --- |
| C=CCN=C=S [AITC, allyl isothiocyanate] | up to 72% | up to 6.5 fold |  |  |  |  |
| C=CCNC(=S)SC[C@H](NC(C)=O)C(=O)O [NAC-AITC, N-acetyl-S—(N-allylthiocarbamoyl)cysteine] |  |  | 55 | downregulation | dose-dependent cleavage/activation | downregulation |
